Test results from patent publication US20230078764A1 (Yumanity Therapeutics, Inc., priority 2019, published 2023).
Like-named read-outs stand apart in the source and are kept apart here.

Experiments:
human SCD5 = target: T1, human SCD5 (Homo sapiens, UniProt Q86SK9); assay: Growth inhibition of yeast strain expressing human SCD5 as sole desaturase (OLE1 deleted), OD600 readout; format: cell-based
T1 construct: expressed in transfected cells; host or cells: yeast strain with OLE1 deleted, plasmid-borne human SCD5 (selected in SD-Ura)
T1 sequence (Q86SK9 1-330): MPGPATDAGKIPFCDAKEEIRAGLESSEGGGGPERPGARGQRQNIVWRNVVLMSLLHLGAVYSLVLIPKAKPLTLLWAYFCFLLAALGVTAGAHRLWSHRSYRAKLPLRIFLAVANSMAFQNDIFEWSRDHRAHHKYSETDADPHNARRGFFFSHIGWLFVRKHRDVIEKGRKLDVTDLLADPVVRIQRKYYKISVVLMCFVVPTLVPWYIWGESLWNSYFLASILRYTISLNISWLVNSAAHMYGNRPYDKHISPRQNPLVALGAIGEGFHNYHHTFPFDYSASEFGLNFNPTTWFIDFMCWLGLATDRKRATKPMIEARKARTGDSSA

human SCD1 = target: T2, human SCD1 (Homo sapiens, UniProt O00767); assay: Growth inhibition of yeast strain expressing human SCD1 as sole desaturase (OLE1 deleted), OD600 readout; format: cell-based
T2 construct: expressed in transfected cells; host or cells: yeast strain with OLE1 deleted, plasmid-borne human SCD1 (selected in SD-Ura)
T2 sequence (O00767 1-359): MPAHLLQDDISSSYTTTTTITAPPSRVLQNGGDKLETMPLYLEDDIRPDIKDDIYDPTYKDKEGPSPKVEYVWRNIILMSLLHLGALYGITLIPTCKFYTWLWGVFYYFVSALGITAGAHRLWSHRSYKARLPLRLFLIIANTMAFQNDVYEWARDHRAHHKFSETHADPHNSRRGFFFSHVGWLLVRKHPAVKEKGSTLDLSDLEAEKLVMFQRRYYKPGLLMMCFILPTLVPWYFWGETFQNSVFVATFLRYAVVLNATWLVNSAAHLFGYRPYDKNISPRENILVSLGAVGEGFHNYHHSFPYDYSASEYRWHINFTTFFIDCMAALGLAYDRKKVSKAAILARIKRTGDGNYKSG

[1] = yeast strain expressing human SCD5 as sole desaturase, growth (OD600) after 40 h at 30° C., read-out: SCD5 IC50
[2] = yeast strain expressing human SCD1 as sole desaturase, growth (OD600) after 40 h at 30° C., read-out: SCD1 IC50

With CN1N=C(C(=O)Nc2ccc(Cc3cccc(F)c3)cc2)CCC1=O [Compound 1, N-(4-(3-fluorobenzyl)phenyl)-1-methyl-6-oxo-1,4,5,6-tetrahydropyridazine-3-carboxamide] as the compound, how does the IC50 (human SCD5; [1]) read?
The IC50 was 5.16 µM.

What about the IC50 (human SCD1; [2]) of the same compound?
The IC50 was > 45 µM.

With CN1N=C(C(=O)Nc2ccc(Cc3cccc(Cl)c3)cc2)CCC1=O [Compound 2, N-(4-(3-chlorobenzyl)phenyl)-1-methyl-6-oxo-1,4,5,6-tetrahydropyridazine-3-carboxamide] as the compound, how does the IC50 (human SCD5; [1]) read?
The IC50 was 2.65 µM.

What about the IC50 (human SCD1; [2]) of the same compound?
The IC50 was > 45 µM.

Cn1nc(C(=O)Nc2ccc(Cc3cccc(Cl)c3)cc2)ccc1=O [Compound 3, N-(4-(3-chlorobenzyl)phenyl)-1-methyl-6-oxo-1,6-dihydropyridazine-3-carboxamide] was tested. Which IC50 (human SCD5; [1]) did it give?
Its IC50 is 0.45 µM.

What about the IC50 (human SCD1; [2]) of the same compound?
The IC50 was 0.99 µM.

What does the source list for Cn1nc(C(=O)Nc2ccc(Cc3cccc(F)c3)cc2)ccc1=O [Compound 4, N-(4-(3-fluorobenzyl)phenyl)-1-methyl-6-oxo-1,6-dihydropyridazine-3-carboxamide]?
IC50 (human SCD5; [1]): 0.58 µM; IC50 (human SCD1; [2]): 1.73 µM

For Cn1cc(C(=O)Nc2ccc(Cc3cccc(F)c3)cc2)ccc1=O [Compound 5, N-(4-(3-fluorobenzyl)phenyl)-1-methyl-6-oxo-1,6-dihydropyridine-3-carboxamide], which IC50 (human SCD5; [1]) is on record?
Its IC50 is 1.87 µM.

And the IC50 (human SCD1; [2])?
Its IC50 is 3.34 µM.

Which IC50 (human SCD5; [1]) does the source give for CN1N=C(C(=O)Nc2ccc(Cc3cccc(F)c3)cn2)CCC1=O [Compound 6, N-(5-(3-fluorobenzyl)pyridin-2-yl)-1-methyl-6-oxo-1,4,5,6-tetrahydropyridazine-3-carboxamide] here?
The IC50 was 1.02 µM.

What about the IC50 (human SCD1; [2]) of the same compound?
The IC50 was > 45 µM.

Which IC50 (human SCD1; [2]) does the source give for CN1N=C(C(=O)Nc2ccc(Cc3cccc(C#N)c3)cn2)CCC1=O [Compound 8, N-(5-(3-cyanobenzyl)pyridin-2-yl)-1-methyl-6-oxo-1,4,5,6-tetrahydropyridazine-3-carboxamide] here?
Its IC50 is > 45 µM.

Which IC50 (human SCD5; [1]) does the source give for CN1N=C(C(=O)Nc2ccc(Cc3ccc(F)c(C#N)c3)cn2)CCC1=O [Compound 10, N-(5-(3-cyano-4-fluorobenzyl)pyridin-2-yl)-1-methyl-6-oxo-1,4,5,6-tetrahydropyridazine-3-carboxamide] here?
Its IC50 is 0.5 µM.

And the IC50 (human SCD1; [2])?
The IC50 was 9.54 µM.

What does the source list for CN1N=C(C(=O)Nc2ccc(Cc3ccc(Cl)c(F)c3)cn2)CCC1=O [Compound 11, N-(5-(4-chloro-3-fluorobenzyl)pyridin-2-yl)-1-methyl-6-oxo-1,4,5,6-tetrahydropyridazine-3-carboxamide]?
IC50 (human SCD5; [1]): 0.08 µM; IC50 (human SCD1; [2]): 2.74 µM

For CN1N=C(C(=O)Nc2ccc(Cc3ccccc3)cn2)CCC1=O [Compound 13, N-(5-benzylpyridin-2-yl)-1-methyl-6-oxo-1,4,5,6-tetrahydropyridazine-3-carboxamide], which IC50 (human SCD1; [2]) is on record?
Its IC50 is > 45 µM.

Which results are given for CN1N=C(C(=O)Nc2ccc(Cc3cc(C(F)(F)F)ccn3)cn2)CCC1=O [Compound 14, 1-methyl-6-oxo-N-(5-((4-(trifluoromethyl)pyridin-2-yl)methyl)pyridin-2-yl)-1,4,5,6-tetrahydropyridazine-3-carboxamide]?
IC50 (human SCD5; [1]): 3.74 µM; IC50 (human SCD1; [2]): 17.3 µM

With COc1cc(Cl)cc(Cc2ccc(NC(=O)c3ccc(=O)n(C)c3)nc2)c1 [Compound 50, N-(5-(3-chloro-5-methoxybenzyl)pyridin-2-yl)-1-methyl-6-oxo-1,6-dihydropyridine-3-carboxamide] as the compound, how does the IC50 (human SCD5; SCD5 IC50) read?
Its IC50 is 0.02 µM.

And the IC50 (human SCD1; SCD1 IC50)?
The IC50 was 1.53 µM.

What does the source list for CN1N=C(C(=O)Nc2ccc(Cc3cc(Cl)cc(C#N)c3)cn2)CCC1=O [Compound 51, N-(5-(3-chloro-5-cyanobenzyl)pyridin-2-yl)-1-methyl-6-oxo-1,4,5,6-tetrahydropyridazine-3-carboxamide]?
IC50 (human SCD5; [1]): 1.56 µM; IC50 (human SCD1; [2]): > 45 µM

Which results are given for COc1cc(F)cc(Cc2ccc(NC(=O)c3ccc(=O)n(C)c3)nc2)c1 [Compound 52, N-(5-(3-fluoro-5-methoxybenzyl)pyridin-2-yl)-1-methyl-6-oxo-1,6-dihydropyridine-3-carboxamide]?
IC50 (human SCD5; SCD5 IC50): 0.13 µM; IC50 (human SCD1; SCD1 IC50): 8.21 µM

How did the IC50 (human SCD5; SCD5 IC50) turn out when Cn1cc(C(=O)Nc2ccc(Cc3ccc(F)cc3)cn2)ccc1=O [Compound 53, N-(5-(4-fluorobenzyl)pyridin-2-yl)-1-methyl-6-oxo-1,6-dihydropyridine-3-carboxamide] was run?
The IC50 was 0.01 µM.

What about the IC50 (human SCD1; SCD1 IC50) of the same compound?
Its IC50 is 0.28 µM.

Which results are given for COc1cc(Cc2ccc(NC(=O)c3ccc(=O)n(C)c3)nc2)ccc1F [Compound 54, N-(5-(4-fluoro-3-methoxybenzyl)pyridin-2-yl)-1-methyl-6-oxo-1,6-dihydropyridine-3-carboxamide]?
IC50 (human SCD5; SCD5 IC50): 0.58 µM; IC50 (human SCD1; SCD1 IC50): 12 µM

How did the IC50 (human SCD5; SCD5 IC50) turn out when Cn1cc(C(=O)Nc2ccc(Cc3cccc(F)c3)cn2)ccc1=O [Compound 55, N-(5-(3-fluorobenzyl)pyridin-2-yl)-1-methyl-6-oxo-1,6-dihydropyridine-3-carboxamide] was run?
Its IC50 is 0.16 µM.

And the IC50 (human SCD1; SCD1 IC50)?
Its IC50 is 1.21 µM.

How did the IC50 (human SCD5; SCD5 IC50) turn out when Cn1cc(C(=O)Nc2ccc(Cc3cc(F)c(F)c(F)c3)cn2)ccc1=O [Compound 56, 1-methyl-6-oxo-N-(5-(3,4,5-trifluorobenzyl)pyridin-2-yl)-1,6-dihydropyridine-3-carboxamide] was run?
The IC50 was 0.01 µM.

What about the IC50 (human SCD1; SCD1 IC50) of the same compound?
Its IC50 is 0.02 µM.

What does the source list for Cn1cc(NC(=O)c2ccc(Cc3cccc(Cl)c3)cn2)ccc1=O [Compound 57, 5-(3-chlorobenzyl)-N-(1-methyl-6-oxo-1,6-dihydropyridin-3-yl)picolinamide]?
IC50 (human SCD5; [1]): 0.01 µM; IC50 (human SCD1; [2]): 0.56 µM

Which IC50 (human SCD1; [2]) does the source give for N#Cc1ccc(C(=O)Nc2ccc(Cc3cccc(F)c3)cn2)nc1 [Compound 135, 5-cyano-N-(5-(3-fluorobenzyl)pyridin-2-yl)picolinamide] here?
The IC50 was 14.1 µM.

For N#Cc1ccc(C(=O)Nc2ccc(Cc3cccc(F)c3)cn2)nc1 [Compound 142, 5-cyano-N-(5-(3-fluorobenzyl)pyridin-2-yl)picolinamide], which IC50 (human SCD1; [2]) is on record?
The IC50 was > 45 µM.

For Cc1nnc2ccc(C(=O)Nc3ccc(Cc4cccc(F)c4)cn3)cn12 [Compound 152, N-(5-(3-fluorobenzyl)pyridin-2-yl)-3-methyl-[1,2,4]triazolo[4,3-a]pyridine-6-carboxamide], which IC50 (human SCD1; [2]) is on record?
Its IC50 is > 45 µM.

How did the IC50 (human SCD1; [2]) turn out when Cn1cc(C(=O)Nc2ccc(Oc3cccc(F)c3)cn2)ccc1=O [Compound 160, N-[5-(3-fluorophenoxy)pyridin-2-yl]-1-methyl-6-oxo-1,6-dihydropyridine-3-carboxamide] was run?
Its IC50 is > 45 µM.

Which IC50 (human SCD1; [2]) does the source give for Cn1nc(C(=O)Nc2ccc(Oc3cccc(F)c3)cn2)ccc1=O [Compound 162, N-[5-(3-fluorophenoxy)pyridin-2-yl]-1-methyl-6-oxo-1,6-dihydropyridazine-3-carboxamide] here?
Its IC50 is > 45 µM.

How did the IC50 (human SCD1; [2]) turn out when CCn1cc(C(=O)Nc2ccc(Oc3cccc(F)c3)cn2)ccc1=O [Compound 164, 1-ethyl-N-[5-(3-fluorophenoxy)pyridin-2-yl]-6-oxo-1,6-dihydropyridine-3-carboxamide] was run?
The IC50 was > 45 µM.

How did the IC50 (human SCD1; [2]) turn out when COc1cccc(Cc2ccc(NC(=O)C3=NN(C)C(=O)CC3)nn2)c1 [Compound 182, N-(6-(3-methoxybenzyl)pyridazin-3-yl)-1-methyl-6-oxo-1,4,5,6-tetrahydropyridazine-3-carboxamide] was run?
The IC50 was > 45 µM.

Which IC50 (human SCD1; [2]) does the source give for CN1N=C(C(=O)Nc2ccc(Cc3cccc(F)c3)nn2)CCC1=O [Compound 193, N-(6-(3-fluorobenzyl)pyridazin-3-yl)-1-methyl-6-oxo-1,4,5,6-tetrahydropyridazine-3-carboxamide] here?
The IC50 was > 45 µM.

With Cn1nc(C(=O)Nc2cnn(Cc3cccc(Cl)c3)c2)ccc1=O [Compound 215, N-(1-(3-chlorobenzyl)-1H-pyrazol-4-yl)-1-methyl-6-oxo-1,6-dihydropyridazine-3-carboxamide] as the compound, how does the IC50 (human SCD1; [2]) read?
The IC50 was 1.28 µM.

CN1N=C(C(=O)Nc2ccc(Cc3ccccc3)nn2)CCC1=O [Compound 253] was tested. Which IC50 (human SCD5; [1]) did it give?
The IC50 was 4.75 µM.

For CN1N=C(c2nc3cc(Cc4cccc(Cl)c4)cnc3[nH]2)CCC1=O [Compound 255], which IC50 (human SCD5; [1]) is on record?
Its IC50 is 4.74 µM.

With Cn1cc(C(=O)Nc2ccc(COc3cccc(Cl)c3)cn2)ccc1=O [Compound 263] as the compound, how does the IC50 (human SCD1; [2]) read?
Its IC50 is > 45 µM.

How did the IC50 (human SCD5; [1]) turn out when CN1N=C(C(=O)Nc2ccc(/C=C/c3cccc(Cl)c3)nn2)CCC1=O [Compound 418] was run?
Its IC50 is > 45 µM.

With CN1N=C(C(=O)Nc2ccc(Cc3ccc(F)cc3)cn2)CCC1=O [Example 17, N-(5-(4-fluorobenzyl)pyridin-2-yl)-1-methyl-6-oxo-1,4,5,6-tetrahydropyridazine-3-carboxamide] as the compound, how does the IC50 (human SCD1; [2]) read?
Its IC50 is > 45 µM.

Which IC50 (human SCD1; [2]) does the source give for CN1N=C(C(=O)Nc2ccc(Cc3ccc4c(c3)COC4)cn2)CCC1=O [Example 19, N-(5-((1,3-dihydroisobenzofuran-5-yl)methyl)pyridin-2-yl)-1-methyl-6-oxo-1,4,5,6-tetrahydropyridazine-3-carboxamide] here?
Its IC50 is > 45 µM.

CN1N=C(C(=O)Nc2ccc(Cc3cc(F)cc(F)c3)cn2)CCC1=O [Example 22, N-(5-(3,5-difluorobenzyl)pyridin-2-yl)-1-methyl-6-oxo-1,4,5,6-tetrahydropyridazine-3-carboxamide] was tested. Which IC50 (human SCD1; [2]) did it give?
The IC50 was > 45 µM.

Which IC50 (human SCD1; [2]) does the source give for CN1N=C(C(=O)Nc2ccc(Cc3cc(F)cc(C#N)c3)cn2)CCC1=O [Example 26, N-(5-(3-cyano-5-fluorobenzyl)pyridin-2-yl)-1-methyl-6-oxo-1,4,5,6-tetrahydropyridazine-3-carboxamide] here?
The IC50 was > 45 µM.
